Data as given in patent US20160310454A1, “LIVER X RECEPTOR AGONISTS IN THE TREATMENT OF EMPHYSEMA” (priority 2013, published 2016).

What was measured:
[1] = tested on: macrophage specific ABCA1 KO (ABCA1 Cre-LysM) macrophages treated with 5% CSE; assay: ABCA1 KO (ABCA1 Cre-LysM) mouse macrophages treated with 5% CSE with or without LXR agonist; type: cell-based
Procedure: FIG. 14. Effect of LXR dependent ABCA1 reexpression on cigarette smoke induced pro-inflammatory and MMP signaling pathways in macrophages. (A.) Western Blot analysis of JNK phosphorylation (oxidative stress activated MAP kinase), (B.) mRNA expression analysis of TLR4/Myd88 in mouse macrophages treated with 5% CSE with or without LXR agonist (T0901317-Cayman) in 3 μM concentration. (C-E.) mRNA expression analysis of inflammatory cytokines TNFα (C.), IL-1β (D.) and IL-10 (E.) mouse macrophages isolated from bone marrow of WT (ABCA1 fl/fl mice) and macrophage specific ABCA1 KO (ABCA1 Cre-LysM) treated with 5% CSE with or without LXR agonist (T0901317-Cayman) in 3 μM concentration. (F-H.) Analysis of MMP activation mouse macrophages isolated from bone marrow of WT (ABCA1 fl/fl mice) and macrophage specific ABCA1 KO (ABCA1 Cre-LysM) treated with 5% CSE with or without LXR agonist (T0901317-Cayman) in 3 μM concentration. MMP-9 and -13 mRNA expression (F.), MMP-9 mRNA expression with LXR agonist treatment, (H.) MMP-9 activity assayed by gelatin zymography. β-Actin was used as a housekeeping gene control for RT-PCR. Values are presented as statistically significant when *p<0.05, **p<0.01, ***p<0.001 when compared to controls and #p<0.05 compared to 5% CSE.
In these experiments both mouse peritoneal and mouse bone marrow derived macrophages (BMdM) were utilized. Mouse peritoneal macrophages were isolated from peritoneal cavities of 3% thioglycolate injected mice on the 5th day from injection. To compare expression of genes in vitro and in vivo peritoneal macrophages were isolated from mice exposed to room air and cigarette smoke. For in vitro analysis cells were seeded on culture plates for 24 h and then treated with CSE. For in vivo analysis cells were collected from peritoneal cavity and mRNA was directly isolated. […] The obtained cells were then counted (usually 100-150 million cells per mouse) and centrifuged for 5 min at 2600 rpm. […] Approximately after 7-10 days of plating the cells become fully differentiated into macrophages and were ready for subsequent experiments. […]

[2] = tested on: murine disease models of atherosclerosis; settings: mouse, in vivo; cited from earlier work

## O=S(=O)(c1ccccc1)N(CC(F)(F)F)c1ccc(C(O)(C(F)(F)F)C(F)(F)F)cc1 [T0901317, N-(2,2,2-trifluoroethyl)-N-[4-[2,2,2-trifluoro-1-hydroxy-1-(trifluoromethyl)ethyl]phenyl]-benzenesulfonamide]
[1]; ABCA1 KO macrophages
  decrease in MMP-9 activity and expression, MMP-13 expression and TNFα expression: not observed
[1]; ABCA1 macrophage knockout, LXR agonist 3 μM
  reversal of induction of cytokines by 5% CSE: not able to reverse
[1]; WT versus ABCA1 KO macrophages, 5% CSE, LXR agonist 3 μM
  reduction of mRNA and activity of MMP-9: dependence on ABCA1: only in the presence of the ABCA1 transporter
[2]
  cholesterol level in serum and liver: lowers
  development of atherosclerosis: inhibits
